# System: phospho-ERK in melanoma derived WM-266-4 cells
# Assay: Mechanistic cellular assay for Raf kinase activity (phospho-ERK, Bio-Plex)
# Type: cell-based
# Settings: Homo sapiens, treated 1-2 hr at 37° C., serum free medium, read-out: pERK EC50
# Excerpt: (2) Mechanistic Cellular Assay for Raf Kinase Activity
# The following method was utilized for quantifying the amount of phospho-ERK in melanoma derived WM-266-4 cells (one allele each of wild type BRaf and mutant BRaf (V600D) as an indicator of Raf kinase activity in cells treated with various kinase inhibitors.
# (1) Detached adhered WM-266-4 cells from flask using 0.25% Trypsin. Resuspended cells in growth media (90% RPMI 1640, 10% FBS) and determine cell density.
# (2) Seeded cells @ 10,000 cells/well in 96-well (flat bottom) tissue culture plates (36,000 cells/cm^2). Added growth media to a final volume of 200 uL/well and incubated overnight at 37° C.
# (1) Prepared compound dilutions (1000× in DMSO) as follows. Starting with a stock of 5 mM compound in DMSO, diluted serially 3-fold in DMSO for a total of eight concentrations (5 mM, 1.67 mM, 0.556 mM, 0.185 mM, 0.062 mM, 0.021 mM, 0.007 mM, 0.002 mM).
# (2) Prepared compound-containing media by adding 1 mL treatment media (100% RPMI 1640 without FBS) to 1 μL of compound dilution (from step 3).
# (3) Removed plates (from step 2) from incubator. Aspirated media and replace with 150 μL compound-containing media. Incubate for 1-2 hr at 37° C.
# (4) Removed plates (from step 5) from incubator and treated each as follows: aspirated compound-containing media and replaced with 300 μL ice-cold 1×PBS, aspirated PBS and replaced with 45 μL lysis buffer (Biorad Bio-Plex lysis buffer containing 0.4% v/v lysis buff. Factor 1, 0.2% v/v lysis buff. Factor 2, and PMSF to 2 mM final concentration), and then placed plate on ice until all plates were treated.
# (5) After all plates were processed (step 6), placed plates on an orbital shaker and shook at room temperature for at least 15 min.
# (6) Finally, removed plates from shaker, and transfered 40 μL/well of lysate from each to new corresponding 96-well V-bottom plates. At this point, samples may be frozen and stored @−80 C.°.
# (1) Thaw (if necessary) plates (from step 8) and added 40 μL of Phospho-Protein Assay Buffer to each 40 μL lysate for a 1:1 dilution.
# (2) Prepared phospho-ERK1,2 Bioplex beads by diluting 1:50 with Bioplex Wash Buffer (mixing 49 μL Wash Buffer with 1 μL of phospho-ERK1,2 Bioplex beads for each sample to be analyzed). Protected from light by wrapping tube in aluminum foil and kept at room temperature.
# (3) Prepared Filter Plate by adding 100 μL/well Bioplex Wash Buffer and removed by vacuum filtration.
# (4) Add 50 μL of bead solution (from step 10) to each well of a prepared Filter Plate (from step 11) and vacuum filter. Wash/filter 2× with 100 μL/well Wash Buffer.
# (5) Added 50 μL of each lysate to appropriate well of the Filter Plate (from step 12). For this and all subsequent plate incubation steps, placed plate on an inverted plate cover (reduces background), and wrapped in aluminum foil (to protect from light). Shook overnight at room temperature. Included positive (control lysate) and negative (lysis buffer) controls.
# (1) Prepared detection antibody (phospho-ERK1,2 Ab) by diluting 1:25 with Detection Antibody Dilution Buffer Buffer (mixing 24 μL Detection Antibody Dilution Buffer with 1 μL of phospho-ERK1,2 Ab for each sample to be analyzed).
# (2) Removed plate (from step 13) from shaker and vacuum filter. Washed/filter plate 3× with 100 μL/well Wash Buffer. Added 25 μL of diluted antibody to each well. Incubated on shaker at RT for 30-45 min.
# (3) Prepared streptavidin-PE by diluting 1:100 with Wash Buffer (mixing 49.5 μL Wash Buffer with 0.5 μL of 100× streptavidin-PE for each sample to be analyzed). Protected from light.
# (4) Removed plate (from step 15) from shaker and vacuum filter. Washed/filter plate 3× with 100 μL/well Wash Buffer. Add 50 μL of diluted streptavidin-PE solution (from step 16) to each sample well. Incubated on shaker for 10-20 min.
# (5) Removed plate from shaker and vacuum filter. Wash/filter plate 3× with 100 μL/well Bead Resuspension Buffer. After last wash resuspended beads in 125 μL Bead Resuspension Buffer. […]
row,Compound,EC50 [µM]
1,CCN1CC(n2cnc3cnc(C(=O)NC(C)c4cnc(Nc5cnc(C(C)(C)C)nc5)s4)cc32)C1 (stereo not drawn) [Example 288],0.1 to 1
2,CC(NC(=O)c1cc2c(cn1)ncn2C)c1cnc(Nc2cc(C(F)(F)F)ccn2)s1 (stereo not drawn) [Example 251],1 to 10
3,C[C@@H](NC(=O)c1ccc2c(c1)NC(=O)CO2)c1ncc(C(=O)Nc2cc(C(F)(F)F)c(Cl)cn2)s1 [Example 66],≤ 0.1
4,Cc1c(C(=O)N[C@H](C)c2ncc(C(=O)Nc3cc(C(F)(F)F)c(Cl)cn3)s2)cnn1-c1ccccc1 [Example 114],1 to 10
5,C[C@@H](NC(=O)c1cnc2n1CCN2)c1ncc(C(=O)Nc2cc(C(F)(F)F)c(Cl)cn2)s1 [Example 169],≤ 0.1
6,CCc1nc2cnc(C(=O)NC(C)c3ncc(Nc4ccc(C(F)(F)F)cc4)s3)cn2c1N (stereo not drawn) [Example 307],1 to 10
7,CC(NC(=O)c1cc2c(cn1)ncn2C)c1cnc(Nc2cnc(C(C)(C)C)nc2)s1 (stereo not drawn) [Example 240],≤ 0.1
8,CC(NC(=O)c1cc2c(cn1)ncn2C)c1cnc(Nc2cc(Cl)ncn2)s1 (stereo not drawn) [Example 260],1 to 10
9,CC(NC(=O)c1cc2c(cn1)ncn2C)c1cnc(Nc2ccc(C3COC3)cc2)cn1 (stereo not drawn) [Example 281],1 to 10
10,CC(NC(=O)c1cnc2n1CCNC2)c1cnc(Nc2ccc(C(F)(F)F)cc2)s1 (stereo not drawn) [Example 314],0.1 to 1
11,CC(NC(=O)c1cc2c(cn1)ncn2C)c1cnc(Nc2ccc(C(F)(F)F)nc2)s1 (stereo not drawn) [Example 246],0.1 to 1
12,COc1cn2ncnc(C(=O)NC(C)c3cnc(Nc4ccc(C(F)(F)F)cc4)s3)c2c1C (stereo not drawn) [Example 337],0.1 to 1
13,C[C@@H](NC(=O)c1cnc(N)n1C1CC1)c1ncc(C(=O)Nc2cc(C(F)(F)F)c(Cl)cn2)s1 [Example 154],0.1 to 1
14,C[C@@H](NC(=O)c1cnn(-c2cccnc2)c1)c1ncc(C(=O)Nc2cc(C(F)(F)F)c(Cl)cn2)s1 [Example 116],0.1 to 1
15,C[C@@H](NC(=O)c1cnn(-c2ccccc2)c1)c1ncc(C(=O)Nc2cc(C(F)(F)F)c(Cl)cn2)s1 [Example 117],1 to 10
16,CC(NC(=O)c1cc2c(cn1)ncn2C)c1cnc(Nc2cc(C(F)(F)F)c(Cl)cn2)cn1 (stereo not drawn) [Example 254],1 to 10
17,CC(NC(=O)c1cc2c(cn1)ncn2CCN)c1cnc(Nc2ccc(C(F)(F)F)cc2)s1 (stereo not drawn) [Example 23],0.1 to 1
18,C[C@@H](NC(=O)c1cnc2n1CCCN2)c1ncc(C(=O)Nc2cc(C(F)(F)F)c(Cl)cn2)s1 [Example 166],≤ 0.1
19,CC(NC(=O)c1cc2c(cn1)ncn2C1CCC1)c1cnc(Nc2ccc(C(F)(F)F)cc2)s1 (stereo not drawn) [Example 14],≤ 0.1
20,CCCn1ncc(C(=O)N[C@H](C)c2ncc(C(=O)Nc3cc(C(F)(F)F)c(Cl)cn3)s2)c1C [Example 122],0.1 to 1
21,C[C@@H](NC(=O)c1cc2c(cn1)ncn2[C@@H]1CCN(C(=O)OC(C)(C)C)C1)c1cnc(Nc2ccc(C(F)(F)F)cc2)s1 [Example 22],0.1 to 1
22,"C[C@H](NC(=O)c1cc2c(cn1)ncn2C)c1cnc(Nc2ccc(Cl)c(C(F)(F)F)c2)cn1 (single isomer, unassigned) [Example 237]",1 to 10
23,C[C@@H](NC(=O)c1cc2c(cn1)ncn2C1CN(S(C)(=O)=O)C1)c1cnc(Nc2ccc(C(F)(F)F)cc2)cn1 [Example 345],≤ 0.1
24,Cc1nc(C(F)(F)F)ccc1Nc1ncc(C(C)NC(=O)c2cc3c(cn2)ncn3C)s1 (stereo not drawn) [Example 259],0.1 to 1
25,CC(NC(=O)c1cncc(Br)c1)c1ncc(C(=O)Nc2cc(C(F)(F)F)c(Cl)cn2)s1 (stereo not drawn) [Example 50],1 to 10
26,CC(NC(=O)c1cc2c(cn1)ncn2C)c1cnc(Nc2ccc(Cl)c(C(F)(F)F)c2)s1 (stereo not drawn) [Example 258],0.1 to 1
27,CNc1ncc(C(=O)N[C@H](C)c2ncc(C(=O)Nc3cc(C(F)(F)F)c(Cl)cn3)s2)s1 [Example 104],0.1 to 1

row,Compound,EC50 [µM]
1,C[C@@H](NC(=O)c1cnn(C)c1Cl)c1ncc(C(=O)Nc2cc(C(F)(F)F)c(Cl)cn2)s1 [Example 124],≤ 0.1
2,CC(NC(=O)c1cc2c(cn1)ncn2C)c1cnc(Nc2cccc(C(C)(C)C(F)(F)F)c2)s1 (stereo not drawn) [Example 278],≤ 0.1
3,Cc1nc2cnc(C(=O)NC(C)c3ncc(Nc4ccc(C(F)(F)F)cc4)s3)cn2c1N (stereo not drawn) [Example 305],0.1 to 1
4,Cc1ccc2cc(C(=O)N[C@H](C)c3ncc(C(=O)Nc4cc(C(F)(F)F)c(Cl)cn4)s3)ccc2n1 [Example 60],0.1 to 1
5,CC(NC(=O)c1cnn2c1CCCC2)c1ncc(C(=O)Nc2cc(C(F)(F)F)c(Cl)cn2)s1 (stereo not drawn) [Example 84],≤ 0.1
6,C[C@@H](NC(=O)c1cnc2sccn12)c1ncc(C(=O)Nc2cc(C(F)(F)F)c(Cl)cn2)s1 [Example 165],0.1 to 1
7,CCn1c(C(=O)NC(C)c2ncc(C(=O)Nc3cc(C(F)(F)F)c(Cl)cn3)s2)cnc1C (stereo not drawn) [Example 164],0.1 to 1
8,CC(NC(=O)c1cc2scnc2cn1)c1cnc(Nc2ccc(C(F)(F)F)cc2)s1 (stereo not drawn) [Example 208],≤ 0.1
9,Cc1ncc(C(=O)NC(C)c2ncc(C(=O)Nc3cc(C(F)(F)F)c(Cl)cn3)s2)n1-c1ccncc1 (stereo not drawn) [Example 159],≤ 0.1
10,CCc1ncc(C(=O)N[C@H](C)c2ncc(C(=O)Nc3cc(C(F)(F)F)c(Cl)cn3)s2)n1CC [Example 163],0.1 to 1
11,C[C@@H](NC(=O)c1cnc2ncccn12)c1ncc(C(=O)Nc2cc(C(F)(F)F)c(Cl)cn2)s1 [Example 137],0.1 to 1
12,C[C@@H](NC(=O)c1cn[nH]c1)c1ncc(C(=O)Nc2cc(C(F)(F)F)c(Cl)cn2)s1 [Example 112],0.1 to 1
13,CC(NC(=O)c1cc2c(cn1)ncn2C1CCOCC1)c1cnc(Nc2ccc(C(F)(F)F)cc2)s1 (stereo not drawn) [Example 9],≤ 0.1
14,CC(NC(=O)c1cc2c(cn1)ncn2C)c1cnc(Nc2cnc(C(C)(C)C)nc2)cn1 (stereo not drawn) [Example 256],0.1 to 1
15,CC(NC(=O)c1cn2c(Br)cnc2cn1)c1cnc(Nc2ccc(C(F)(F)F)cc2)s1 (stereo not drawn) [Example 297],≤ 0.1
16,CC(NC(=O)c1cc2c(cn1)ncn2C)c1cnc(Nc2cccc(C(C)(C)C#N)c2)s1 (stereo not drawn) [Example 252],0.1 to 1
17,C[C@H](NC(=O)c1cc2c(cn1)ncn2C)c1cnc(Nc2cnc(C(C)(C)C)nc2)s1 [Example 242],1 to 10
18,Cc1ncc(C(=O)N[C@H](C)c2ncc(C(=O)Nc3cc(C(F)(F)F)c(Cl)cn3)s2)n1-c1ccccn1 [Example 161],0.1 to 1
19,CC(NC(=O)c1ncc2ncn(C)c2n1)c1cnc(Nc2ccc(C(F)(F)F)cc2)cn1 (stereo not drawn) [Example 191],1 to 10
20,CC(NC(=O)c1cc2c(cn1)ncn2C)c1cnc(Nc2cc(CN(C)C)cc(C(F)(F)F)c2)s1 (stereo not drawn) [Example 357],1 to 10
21,CC(NC(=O)c1cc2c(cn1)ncn2C)c1cnc(Nc2cccc(C3(C)CC3)c2)s1 (stereo not drawn) [Example 271],0.1 to 1
22,CC(NC(=O)c1cc2cn[nH]c2cn1)c1cnc(Nc2ccc(C(F)(F)F)cc2)s1 (stereo not drawn) [Example 202],1 to 10
23,C[C@@H](NC(=O)c1ccc2[nH]cnc2c1)c1ncc(C(=O)Nc2cc(C(F)(F)F)c(Cl)cn2)s1 [Example 53],0.1 to 1
24,CC(NC(=O)c1cc2c(cn1)ncn2C)c1cnc(Nc2cccc(C(F)(F)F)n2)s1 (stereo not drawn) [Example 253],0.1 to 1
25,CC(NC(=O)c1cc2c(cn1)ncn2C)c1cnc(Nc2ccc(C(C)(C)C(F)(F)F)cc2)s1 (stereo not drawn) [Example 272],0.1 to 1
26,CCn1cnc2cnc(C(=O)NC(C)c3cnc(Nc4ccc(C(F)(F)F)cn4)cn3)cc21 (stereo not drawn) [Example 284],0.1 to 1
27,CC(NC(=O)c1cc2c(cn1)ncn2C)c1cnc(Nc2ccc(C3(C)CC3)cc2)s1 (stereo not drawn) [Example 277],0.1 to 1
